Assay results from patent US20250195416A1, “DISSOLVABLE POLYMERIC OCULAR INSERT FOR DRUGS DELIVERY” (Alcon Inc., priority 2023, published 2025).

Assay: In vitro release of olopatadine from polymer gel films (USP Apparatus 7, HPLC-UV)
Assay type: physicochemical
Conditions: FIGS. 1A and 1B
Description: Release of olopatadine from polymer gel films was studied in vitro using water or phosphate buffered saline (PBS) as the dissolution media. Dissolution was performed using USP Apparatus 7 and samples were collected by its autosampler. HPLC—with UV-vis detector was used to measure component concentration during dissolution samples at different time points. […] Olopatadine HCl remains as a zwitterion at physiological pH due to the negatively charged carboxylic group and positively charged tertiary amino group on the molecule, therefore possible mechanism of API release from the gel films into dissolution media is through ion exchange. HA in gel films may complex with olopatadine through ionic interaction. […] Dissolution media plays a main role in the release profiles, as ionic bonding occurred between HA and Olopatadine. Ionic polymer provides some prolong release. Diffusion is believed to be the main release mechanism. PBS: phosphate-buffered saline pH 7.2; DI water: deionized water.

Olopatadine release rate, PBS versus water (dissolution media PBS pH 7.2 or DI water): faster in PBS than in water
Burst release of olopatadine (water and PBS): no burst release
Compound: CN(C)CC/C=C1/c2ccccc2COc2ccc(CC(=O)O)cc21.Cl [olopatadine, 11-[(Z)-3-(Dimethylamino)propylidene]-6-11-dihydrodibenz[b,e] oxepin-2-acetic acid hydrochloride]
